Results taken from ChEMBL document CHEMBL1136296, “3-cyanoindole-based inhibitors of inosine monophosphate dehydrogenase: synthesis and initial structure-activity relationships” (Bioorg Med Chem Lett, 2003).

What was measured:
[1] = target: Inosine-5'-monophosphate dehydrogenase 2 (Homo sapiens, UniProt P12268); assay: Inhibitory activity tested against inosine-5'-monophosphate dehydrogenase 2 (IMPDH-II) enzyme
CCRF-CEM = assay: cells; conditions: Homo sapiens
Description: Inhibition of CEM (human leukemia) cell proliferation.

Row | Compound | IC50 [1] | IC50 (CCRF-CEM)
1 | Cn1cc(C#N)c2ccc(Nc3ncc(-c4cccc(CNC(=O)c5cccc6ccccc56)c4)o3)cc21 | 84 nM | 2500 nM
2 | Cc1ccc(NC(=O)Nc2ccc3c(C#N)cn(C)c3c2)cc1 | 230 nM | –
3 | Cn1cc(C#N)c2ccc(Nc3ncc(-c4cccc(CNC(=O)OC5CCOC5)c4)o3)cc21 (configuration not stated) | 260 nM | > 10000 nM
4 | CC(=O)NCc1ccc(-c2cnc(Nc3ccc4c(C#N)cn(C)c4c3)o2)cc1 | 94 nM | > 10000 nM
5 | COc1cc(NC(=O)Nc2cccc(C)c2)ccc1C#N | 290 nM | –
6 | COc1cc(Nc2ncc(-c3ccccc3N(C)C(=O)CN3CCOCC3)o2)ccc1-c1cnco1 | – | 520 nM
7 | COc1cc(NC(=O)Nc2cccc(CNC(=O)O[C@H]3CCOC3)c2)ccc1-c1cnco1 [MERIMEPODIB] | 11 nM | 490 nM
8 | CN(C)CCOC(=O)NCc1cccc(-c2cnc(Nc3ccc4c(C#N)cn(C)c4c3)o2)c1 | 210 nM | 1400 nM
9 | Cn1cc(C#N)c2ccc(Nc3ncc(-c4ccccc4CNC(=O)OCCC#N)o3)cc21 | 420 nM | > 10000 nM
10 | Cn1cc(C#N)c2ccc(Nc3ncc(-c4cccc(CNC(=O)c5ccc6ccccc6c5)c4)o3)cc21 | 40 nM | 4400 nM
11 | CC[C@H](CC#N)OC(=O)NCc1cccc(NC(=O)Nc2ccc(C#N)c(OC)c2)c1 | 6 nM | –
12 | Cc1cccc(NC(=O)Nc2ccc3c(C#N)cn(C)c3c2)c1 | 670 nM | –
13 | Cn1cc(C#N)c2ccc(Nc3ncc(-c4ccccc4CNC(=O)OC4CCOC4)o3)cc21 (configuration not stated) | 420 nM | > 10000 nM
14 | Cn1cc(C#N)c2ccc(NC(=O)Nc3ccccc3)cc21 | 630 nM | –
15 | Cn1cc(C#N)c2ccc(Nc3ncc(-c4ccc(CNC(=O)C(C)(C)C)cc4)o3)cc21 | 180 nM | 4900 nM
16 | Cn1cc(C#N)c2ccc(Nc3ncc(-c4cccc(CNC(=O)OCCC#N)c4)o3)cc21 | 240 nM | > 10000 nM

Further lines, results first:

Row | IC50 [1] | IC50 (CCRF-CEM) | Compound
17 | 260 nM | 2800 nM | Cn1cc(C#N)c2ccc(Nc3ncc(-c4ccc(CN)cc4)o3)cc21
18 | 400 nM | – | COc1cc(Nc2ncc(-c3ccccc3)o2)ccc1C#N
19 | 280 nM | 1100 nM | Cn1cc(C#N)c2ccc(Nc3ncc(-c4ccccc4CN)o3)cc21
20 | 100 nM | > 10000 nM | Cn1cc(C#N)c2ccc(Nc3ncc(-c4ccc(CNC(=O)c5ccccc5)cc4)o3)cc21
21 | 33 nM | 8000 nM | Cn1cc(C#N)c2ccc(Nc3ncc(-c4ccccc4)o3)cc21
22 | 200 nM | 3500 nM | Cn1cc(C#N)c2ccc(Nc3ncc(-c4cccc(NC(=O)c5ccccc5)c4)o3)cc21
23 | > 550 nM | – | Cc1ccc(-c2cnc(Nc3ccc4c(C#N)cn(C)c4c3)o2)cc1
24 | 180 nM | 3500 nM | Cn1cc(C#N)c2ccc(Nc3ncc(-c4cccc(CN)c4)o3)cc21
25 | 266 nM | – | CC(=O)OCC(=O)N(C)c1ccccc1-c1cnc(Nc2ccc3c(C#N)cn(C)c3c2)o1
26 | 16 nM | – | COc1cc(Nc2ncc(-c3ccccc3)o2)ccc1-c1cnco1
27 | 490 nM | > 10000 nM | Cc1cccc(-c2cnc(Nc3ccc4c(C#N)cn(C)c4c3)o2)c1
28 | 440 nM | – | Cc1ccccc1-c1cnc(Nc2ccc3c(C#N)cn(C)c3c2)o1
29 | 130 nM | 5300 nM | Cn1cc(C#N)c2ccc(Nc3ncc(-c4cccc(CNC(=O)c5ccccc5)c4)o3)cc21
